Experimental findings from patent publication US20100056458A1, “Peptides Inhibiting Angiotensin-Converting Enzyme” (CAMPINA NEDERLAND HOLDING B.V., priority 2005, published 2010) are described below.

The first test has as its system angiotensin-converting enzyme (ACE). Briefly: HPLC with mass spectrometry and on-line bioassay unit for assessing ACE-inhibiting activity. In kind it is biochemical. As to conditions: another batch of the same caseinate. From the text:
The identity and the activity of the peptides and their mixtures can be determined by known methods, e.g. as described by Van Elswijk et al. J Chromatography A, 1020 (2003) 45-58, involving liquid chromatography coupled to mass spectroscopy, and on-line bioassay. […] The IC50 can be determined in vitro as described by V. Vermeirsen, J. van Camp & J. Verstraete, “Optimisation and validation of an angiotensin-converting enzyme inhibition assay for the screening of bioactive peptides”. J. Biochem. Biophys. Methods 51, 75-87 (2002).
The peptides obtained according to example I, were analysed using HPLC as described by Van Elswijk et al. J Chromatography A 1020 (2003) 45-58. The HPLC eluate was divided over a mass spectrometry for determining the peptide structure and a bioassay unit for assessing the ACE-inhibiting activity. The following peptides were identified: AVP (SEQ ID No. 25), LV (SEQ ID No. 5) and IV (SEQ ID No. 1). Another batch of the same caseinate contained the peptides KIHP (SEQ ID No. 28), KK (SEQ ID No. 73), VPYPQR (SEQ ID No. 20), and KYKVPQ (SEQ ID No. 91). Starting with other casein sources the peptides VLGPV (SEQ ID No. 10), VLPVPQK (SEQ ID No. 75), VPYPQ (SEQ ID No. 21), KK (SEQ ID No. 73), VNELSK (SEQ ID No. 76), and […] (SEQ ID No. 33) were found.
Similarly the product from example II was analysed and contained IAEKT (SEQ ID No. 57), LDIQK (SEQ ID No. 74) and LKALP (SEQ ID No. 64). Starting from other whey protein sources WPC 60 or whey protein isolate, VLGPV (SEQ ID No. 10), VLPVPQ (SEQ ID No. 18), MKGLDI (SEQ ID No. 41), LR (SEQ ID No. 44), MHIRLS (SEQ ID No. 48), IIA (SEQ ID No. 56) were identified.
Regarding “VPYPQR (listed as Bos taurus) [β-casein-derived peptide]”, the “identified as ACE-inhibiting peptide” value is listed as “contained”. In the case of “KIHP (listed as Bos taurus) [β-casein-derived peptide]”, the “identified as ACE-inhibiting peptide” value is recorded as “contained”. On to KYKVPQ (listed as Bos taurus), for which the “identified as ACE-inhibiting peptide” value is on record as “contained”.

The test is the same for the next values; noted with them: hydrolysate of example I (calcium caseinate).
With AVP, the “identified as ACE-inhibiting peptide” value is on record as “identified”.

The same test, now with this note: other casein sources.
Take VLPVPQK (listed as Bos taurus): the “identified as ACE-inhibiting peptide” value is “found”. For “VPYPQ (listed as Bos taurus) [β-casein-derived peptide]”, the “identified as ACE-inhibiting peptide” value is “found”. Regarding VNELSK (listed as Bos taurus), the “identified as ACE-inhibiting peptide” value was “found”. Still for that read-out and setting: to “VLGPV (listed as Bos taurus) [β-casein peptide]” belongs “found”; to FFVAPFPEVFG (listed as Bos taurus), “found”.

The same test, now with this note: other whey protein sources WPC 60 or whey protein isolate.
Consider VLPVPQ (listed as Bos taurus), for which the “identified as ACE-inhibiting peptide” value is recorded as “identified”.

Take MHIRLS (listed as Bos taurus): the “identified as ACE-inhibiting peptide” value is “identified”.

For the substance “MKGLDI (listed as Bos taurus) [β-lactoglobulin-derived peptide]”, the “identified as ACE-inhibiting peptide” value was “identified”. As for “VLGPV (listed as Bos taurus) [β-casein peptide]”, the “identified as ACE-inhibiting peptide” value was “identified”.

Regarding IIA (listed as Bos taurus), the “identified as ACE-inhibiting peptide” value is reported as “identified”.

Staying with this test, now noted: product from example II (WPC 80 hydrolysate).
Turning to “LKALP (listed as Bos taurus) [β-lactoglobulin-derived peptide]”, the “identified as ACE-inhibiting peptide” value is reported as “contained”. Regarding “LDIQK (listed as Bos taurus) [β-lactoglobulin-derived peptide]”, the “identified as ACE-inhibiting peptide” value is recorded as “contained”.

Consider “IAEKT (listed as Bos taurus) [β-lactoglobulin-derived peptide]”, for which the “identified as ACE-inhibiting peptide” value was “contained”.
